US9241927B2, “Pharmaceutical compositions comprising sigma receptor ligands” (Laboratories Del Dr, Esteve, S.A., priority 2009, dated 2016)

Legend:
[1] = pH solubility profile of API-001; type: physicochemical
From the text: (§1) API-001 has a pKa 6.8, being a weakly basic drug and having a solubility strongly influenced by pH of the medium.
Therefore, it is expected that the extrusion-spheronization pellets of the invention to be absorbed over all the intestinal tract.

pKa of API-001 = type: physicochemical
From the text: as §1

solubility ([1]; pH 6.8, aqueous buffer): 600 µg/mL | pKa (pKa of API-001): 6.8
SMILES: Cc1cc(OCCN2CCOCC2)nn1-c1ccc2ccccc2c1.Cl [API-001, 4-{2-[5-Methyl-1-(naphthalen-2-yl)-1H-pyrazol-3-yloxy]ethyl}morpholine hydrochloride]
pH solubility profile ([1]; FIG. 2): solubility of API-001 is decreasing when is increasing the pH of the medium
